# How the values were obtained:
# Experiment in all cases: relative viability (nuclei count vs DMSO), 5 days (fraction); higher = more cells survive
# IPA-3 + Palbociclib = compound: C1=CC=C2C(=C1)C=CC(=C2SSC3=C(C=CC4=CC=CC=C43)O)O [IPA-3] + CC(=O)c1c(C)c2cnc(Nc3ccc(N4CCNCC4)cn3)nc2n(C2CCCC2)c1=O [Palbociclib] (partner 0.5 µM)
# Outline: (§1)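 Lung cancer cell lines were pin-tool dosed in 1536-well plates on the day after seeding, with either a lone drug or a fixed anchor-drug dose plus five library-drug doses (not always all listed) in √10 steps. Nuclei were counted on 4× images after 5 days. Relative viability is the ratio of treated-well to vehicle-well nuclei counts, with each value a median of duplicate plates.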
# IPA-3 + Dasatinib = compound: C1=CC=C2C(=C1)C=CC(=C2SSC3=C(C=CC4=CC=CC=C43)O)O [IPA-3] + Cc1nc(Nc2ncc(C(=O)Nc3c(C)cccc3Cl)s2)cc(N2CCN(CCO)CC2)n1 [Dasatinib] (partner 0.075 µM)
# Outline: as §1
# Doramapimod + OSI-027 = compound: Cc1ccc(-n2nc(C(C)(C)C)cc2NC(=O)Nc2ccc(OCCN3CCOCC3)c3ccccc23)cc1 [Doramapimod] + COc1cccc2cc(-c3nc([C@H]4CC[C@H](C(=O)O)CC4)n4ncnc(N)c34)[nH]c12 [OSI-027] (partner 0.5 µM)
# Outline: as §1
# Doramapimod + AZD7762 = compound: Cc1ccc(-n2nc(C(C)(C)C)cc2NC(=O)Nc2ccc(OCCN3CCOCC3)c3ccccc23)cc1 [Doramapimod] + NC(=O)Nc1cc(-c2cccc(F)c2)sc1C(=O)N[C@H]1CCCNC1 [AZD7762] (partner 0.2 µM)
# Outline: as §1
Cell Line,relative viability (IPA-3 + Palbociclib; first compound 0.2 µM),relative viability (IPA-3 + Palbociclib; first compound 0.6325 µM),relative viability (IPA-3 + Palbociclib; first compound 2 µM),relative viability (IPA-3 + Palbociclib; first compound 6.325 µM),relative viability (IPA-3 + Palbociclib; first compound 20 µM),relative viability (IPA-3 + Dasatinib; first compound 0.2 µM),relative viability (IPA-3 + Dasatinib; first compound 0.6325 µM),relative viability (IPA-3 + Dasatinib; first compound 2 µM),relative viability (IPA-3 + Dasatinib; first compound 6.325 µM),relative viability (IPA-3 + Dasatinib; first compound 20 µM),relative viability (Doramapimod + OSI-027; first compound 0.02 µM),relative viability (Doramapimod + OSI-027; first compound 0.06325 µM),relative viability (Doramapimod + OSI-027; first compound 0.2 µM),relative viability (Doramapimod + OSI-027; first compound 0.6325 µM),relative viability (Doramapimod + OSI-027; first compound 2 µM),relative viability (Doramapimod + AZD7762; first compound 0.02 µM),relative viability (Doramapimod + AZD7762; first compound 0.06325 µM),relative viability (Doramapimod + AZD7762; first compound 0.2 µM),relative viability (Doramapimod + AZD7762; first compound 0.6325 µM),relative viability (Doramapimod + AZD7762; first compound 2 µM)
201T,0.363,0.38,0.391,0.342,0.388,0.576,0.57,0.604,0.616,0.65,0.629,0.785,0.71,0.782,0.781,0.516,0.562,0.447,0.504,0.341
A-427,0.531,0.499,0.511,0.515,0.52,0.682,0.632,0.634,0.713,0.72,0.435,0.498,0.578,,0.402,0.77,0.732,0.743,,0.561
ABC-1,0.733,0.81,0.392,0.748,0.851,0.666,0.477,0.536,0.708,0.58,0.613,0.451,0.433,0.655,0.51,0.761,0.674,0.874,0.794,0.674
BEN,0.432,0.471,0.43,0.532,0.457,0.471,0.35,0.323,0.342,0.283,0.317,0.309,0.33,0.236,0.316,0.58,0.724,0.72,0.597,0.681
CAL-12T,0.718,0.342,0.404,0.28,0.421,0.627,0.418,0.379,0.409,0.524,0.627,0.672,0.579,0.711,0.532,0.675,0.765,0.696,0.596,0.535
COR-L23,0.283,0.301,0.316,0.266,0.118,0.679,0.506,0.503,0.46,0.125,0.688,0.892,0.84,0.806,0.621,,,,,
COR-L 105,0.409,0.275,0.405,0.393,0.399,0.401,0.34,0.305,0.332,0.272,0.799,0.745,0.703,0.771,0.612,,,,,
ChaGo-K-1,0.952,0.824,0.923,0.955,1.02,0.699,0.54,0.526,0.621,0.614,0.632,0.607,0.63,0.518,0.409,0.884,0.846,0.894,0.779,0.768
EKVX,0.352,0.418,0.34,0.456,0.409,0.538,0.544,0.599,0.537,0.486,0.718,0.684,0.679,0.671,0.698,0.679,0.676,0.717,0.635,0.678
EMC-BAC-2,0.537,0.509,0.527,0.516,0.532,0.309,0.458,0.302,0.311,0.292,0.379,0.396,0.445,0.571,0.43,1.07,1.16,1.07,1.07,0.965
EPLC-272H,0.31,0.38,0.316,0.304,0.327,0.337,0.325,0.413,0.411,0.543,0.32,0.297,0.306,0.316,0.295,0.209,0.209,0.254,,0.22
H3255,0.306,0.308,0.29,0.298,0.272,0.387,0.249,0.428,0.335,0.284,0.684,0.618,0.526,0.679,0.518,1.01,1,0.972,0.956,0.762
HARA,0.255,0.24,0.255,0.27,0.235,0.264,0.245,0.286,0.348,0.277,0.482,0.371,0.392,,0.327,0.341,0.235,0.397,0.536,0.213
HCC-15,0.889,0.78,0.462,0.697,0.704,0.682,0.605,0.548,0.596,0.471,0.688,0.645,0.68,,0.539,1.35,1.17,1.23,,1.17
HCC-44,0.966,1.02,0.979,0.948,0.934,,,,,,0.563,0.607,0.625,0.463,0.433,1.06,1.02,1.04,1.01,1.07
HCC-78,0.53,0.435,0.485,0.486,0.484,0.43,0.359,0.462,0.439,0.427,0.372,0.362,0.365,0.358,0.299,0.518,0.642,0.705,0.756,0.75
HCC-366,0.479,0.382,0.374,0.378,0.474,0.892,0.613,0.604,0.656,0.679,0.837,0.918,0.937,1.08,0.853,0.387,0.271,0.33,0.34,0.213

# — the supplement of paper PMC10307832
